1 compound from paper PMC4547777 (Angewandte Chemie (International ed. in English), 2015) can be followed below.

This assay concerns the target Androgen Receptor (AR) (Homo sapiens, UniProt P10275). Nature of the assay: competition radioligand binding with [3H]-R1881.

Chain of Androgen Receptor (AR) (P10275 whole entry): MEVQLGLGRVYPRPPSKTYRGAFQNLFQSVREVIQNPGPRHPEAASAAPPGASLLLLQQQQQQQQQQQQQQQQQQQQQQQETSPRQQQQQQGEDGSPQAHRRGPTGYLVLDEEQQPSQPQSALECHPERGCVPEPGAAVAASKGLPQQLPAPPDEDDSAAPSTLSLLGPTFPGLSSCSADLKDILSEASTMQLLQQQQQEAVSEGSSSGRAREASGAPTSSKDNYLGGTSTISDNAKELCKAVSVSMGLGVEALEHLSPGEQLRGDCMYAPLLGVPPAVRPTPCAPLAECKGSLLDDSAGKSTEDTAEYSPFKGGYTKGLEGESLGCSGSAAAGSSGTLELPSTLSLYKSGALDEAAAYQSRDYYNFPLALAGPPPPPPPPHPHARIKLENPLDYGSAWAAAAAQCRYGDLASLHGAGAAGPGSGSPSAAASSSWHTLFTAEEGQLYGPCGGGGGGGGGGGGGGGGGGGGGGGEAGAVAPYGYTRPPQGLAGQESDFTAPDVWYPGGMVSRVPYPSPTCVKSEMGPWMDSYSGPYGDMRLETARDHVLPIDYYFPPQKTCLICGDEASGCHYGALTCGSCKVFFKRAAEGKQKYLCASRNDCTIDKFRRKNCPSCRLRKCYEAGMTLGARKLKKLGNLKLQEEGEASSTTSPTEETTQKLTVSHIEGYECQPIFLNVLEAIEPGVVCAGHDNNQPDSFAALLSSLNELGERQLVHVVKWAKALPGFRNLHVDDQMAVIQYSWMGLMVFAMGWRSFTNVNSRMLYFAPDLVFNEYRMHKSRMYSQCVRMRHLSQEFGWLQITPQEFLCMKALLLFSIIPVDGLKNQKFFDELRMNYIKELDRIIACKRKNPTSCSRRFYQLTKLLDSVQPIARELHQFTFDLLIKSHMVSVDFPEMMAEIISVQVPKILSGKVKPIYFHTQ

For the compound `CC1(C)C(=O)N(c2ccc(C#N)c(C(F)(F)F)c2)C(=S)N1CCCCO` [RU59063], the “competition radioligand binding with [3H]-R1881 (parent ligand)” value was “competition radioligand binding assay using [^3H]-R1881 showed that appending of the adamantyl group to RU59063 reduced affinity”.
